In patent publication US6951843B2, “Peptide derivatives and their pharmaceutically acceptable salts, thereof, processes for preparation of both and use thereof” (priority 2000, dated 2005):
Read-outs that look alike come from different tables or passages of the source.

Experiments:
Arg-gingipain (RGP) = experiment: Inhibitory activity against Arg-gingipain (RGP), substrate Z-Phe-Arg-MCA, for comparison; format: biochemical, Porphyromonas gingivalis; details: compound concentration 10^−6 mol/l
Description: Enzyme inhibitory activity (%)=[1−(F/F0)]×100
The inhibitory activity against Arg-gingipain (hereinafter referred to as “RGP”) was measured for comparison in a manner similar to the above, by the process described in Journal Biological Chemistry, Vol. 269, 21371-21378 (1994) using Z-Phe-Arg-MCA as a substrate.

Lys-gingipain (KGP) = Lys-gingipain (KGP) (Porphyromonas gingivalis, UniProt B2RLK2)
Description: Measurement of Inhibitory Activity Against KGP
The inhibitory activity against Lys-gingipain (KGP) was measured by the method described in Journal Biochemistry, Vol. 123, 305-312 (1998), using Z-His-Glu-Lys-MCA as a substrate. Specifically, the measurement was carried out in the following manner: 100 μl of 50 mM L-cystein, 200 μl of a 0.1 M sodium phosphate buffer solution (pH 7.5), 20 μl of 12.3 nM KGP solution containing 0.05% “Brij35” (a tradename of Aldrich, polyoxyethylene(23) lauryl ether), 80 μl of distilled water and 100 μl of a dimethyl sulfoxide solution of a compound according to the invention were mixed together, and preincubated at 37° C. for 5 minutes. Thereafter, 500 μl of a 0.1% dimethyl sulfoxide solution containing 20 μM Z-His-Glu-Lys-MCA was added, followed by incubation at 40° C. for 10 minutes. Then, an acetic acid buffer solution (pH 5.0) containing 10 mM iodoacetamide was added to stop the enzyme reaction, and the fluorescence intensity (F) at 460 nm excited at 380 nm was measured. […] The enzyme inhibitory activity (%) was calculated by the following equation. Enzyme inhibitory activity (%)=[1−(F/F0)]×100

[1] = compound concentration 10^−6 mol/l
[2] = compound concentration 10^−9 mol/l

| Compound | melting point [°C] | Enzyme inhibitory activity (%) RGP (Arg-gingipain (RGP)) [%] | Enzyme inhibitory activity (%) KGP (Lys-gingipain (KGP); [1]) [%] | Enzyme inhibitory activity (%) KGP (Lys-gingipain (KGP); [2]) [%] |
| --- | --- | --- | --- | --- |
| CN(NC(=O)CC[C@H](NC(=O)OCc1ccccc1)C(=O)N[C@@H](CCCCNC(=O)OC(C)(C)C)C(=O)C(=O)NCc1ccccc1)c1ccccc1 | 147 to 150 | – | – | – |
| CN(C)C(=O)[C@H](CC(N)=O)NC(=O)C(O)[C@H](CCCCNC(=O)OC(C)(C)C)NC(=O)[C@H](CCC(=O)OC(C)(C)C)NC(=O)OCc1ccccc1 (some centres unmarked) | 88 to 91 | – | – | – |
| CCCNC(=O)C(O)[C@H](CCCCNC(=O)OC(C)(C)C)NC(=O)[C@H](CCC(=O)OC(C)(C)C)NC(=O)OCc1ccccc1 (some centres unmarked) | 73 to 75 | – | – | – |
| CN(C)C(=O)[C@H](Cc1ccccc1)NC(=O)C(O)[C@H](CCCCNC(=O)OC(C)(C)C)NC(=O)[C@H](CCC(=O)OC(C)(C)C)NC(=O)OCc1ccccc1 (single isomer, unassigned) | 132 to 134 | – | – | – |
| CC(C)(C)OC(=O)CC[C@H](NC(=O)OCc1ccccc1)C(=O)N[C@@H](CCCCNC(=O)OC(C)(C)C)C(O)C(=O)Nc1ccccc1 (single isomer, unassigned) | 146 to 147 | – | – | – |
| CN(C)C(=O)[C@H](Cc1ccccc1)NC(=O)C(=O)[C@H](CCCCN)NC(=O)[C@H](CCC(=O)O)NC(=O)OCc1ccccc1.Cl [Example 34] | – | 5.7 | 99.7 | 40.6 |
| CC(C)C[C@H](NC(=O)C(=O)[C@H](CCCCN)NC(=O)[C@H](CCC(=O)O)NC(=O)OCc1ccccc1)C(=O)N(C)C.Cl [Example 35] | – | 3.7 | 99.9 | 50.6 |
| CN(C)C(=O)[C@H](CCC(=O)O)NC(=O)C(=O)[C@H](CCCCN)NC(=O)[C@H](CCC(=O)O)NC(=O)OCc1ccccc1.Cl [Example 36] | – | 0.0 | 98.6 | 38.4 |
| CN(C)C(=O)[C@H](CC(N)=O)NC(=O)C(=O)[C@H](CCCCN)NC(=O)[C@H](CCC(=O)O)NC(=O)OCc1ccccc1.Cl [Example 37] | – | 8.5 | 99.9 | 59.6 |
| CCCNC(=O)C(=O)[C@H](CCCCN)NC(=O)[C@H](CCC(=O)O)NC(=O)OCc1ccccc1.Cl [Example 39] | – | 0.0 | 99.6 | 71.9 |
| Cl.NCCCC[C@H](NC(=O)[C@H](CCC(=O)O)NC(=O)OCc1ccccc1)C(=O)C(=O)Nc1ccccc1 [Example 40] | – | 0.0 | 99.6 | 71.3 |
| Cl.NCCCC[C@H](NC(=O)[C@H](CCC(=O)O)NC(=O)OCc1ccccc1)C(=O)C(=O)NCc1ccccc1 [Example 41] | – | 4.0 | 99.7 | 81.8 |
| Cl.NCCCC[C@H](NC(=O)[C@H](CCC(=O)O)NC(=O)OCc1ccccc1)C(=O)C(=O)NCCc1ccccc1 [Example 42] | – | 7.7 | 98.0 | 67.0 |
| Cl.NCCCC[C@H](NC(=O)[C@H](CCC(N)=O)NC(=O)OCc1ccccc1)C(=O)C(=O)NCc1ccccc1 [Example 43] | – | 9.0 | 100.0 | 93.8 |
| CNC(=O)CC[C@H](NC(=O)OCc1ccccc1)C(=O)N[C@@H](CCCCN)C(=O)C(=O)NCc1ccccc1.Cl [Example 44] | – | 1.9 | 100.0 | 97.3 |
| CN(C)C(=O)CC[C@H](NC(=O)OCc1ccccc1)C(=O)N[C@@H](CCCCN)C(=O)C(=O)NCc1ccccc1.Cl [Example 45] | – | 0.0 | 100.0 | 93.7 |
| Cl.Cl.NCCCC[C@H](NC(=O)[C@H](CCC(=O)NCCN)NC(=O)OCc1ccccc1)C(=O)C(=O)NCc1ccccc1 [Example 46] | – | 0.5 | 99.9 | 99.9 |
| Cl.Cl.NCCCC[C@H](NC(=O)[C@H](CCC(=O)N1CCNCC1)NC(=O)OCc1ccccc1)C(=O)C(=O)NCc1ccccc1 [Example 47] | – | 6.4 | 100.0 | 98.5 |
| CN(C)NC(=O)CC[C@H](NC(=O)OCc1ccccc1)C(=O)N[C@@H](CCCCN)C(=O)C(=O)NCc1ccccc1.Cl.Cl [Example 48] | – | 4.1 | 100.0 | 98.2 |
| CN(NC(=O)CC[C@H](NC(=O)OCc1ccccc1)C(=O)N[C@@H](CCCCN)C(=O)C(=O)NCc1ccccc1)c1ccccc1.Cl.Cl [Example 49] | – | 0.0 | 100.0 | 99.0 |
